Assay results taken from patent US20260053794A1, “SOMATOSTATIN RECEPTOR 2 AGONISTS AND USES THEREOF” (Exelixis, Inc., priority 2022, published 2026).

The molecules below were run against T1, Somatostatin Receptor 2 (SSTR2) (Homo sapiens, UniProt P30874) (assay: Biochemical Assay for Activation of Somatostatin Receptor 2 (SSTR2), Cisbio HTRF cAMP assay). Settings: average pEC50; HTRF cAMP assay in stably-transfected cell line expressing SSTR2; cells incubated with compounds for 1-2h.
T1 construct: expressed in transfected cells
Format: cell-based
Procedure: Biochemical Assay for Activation of Somatostatin Receptor 2 (SSTR2)
Agonistic activation of SSTRs leads to an […] production of intracellular cAMP levels. Cisbio's homogeneous time-resolved fluorescence (HTRF) cAMP assay was used to measure cAMP concentration in an high-throughput format. Increase in intracellular cAMP concentrations was measuring using a stably-transfected cell line expressing SSTR2. Test compounds were dissolved in DMSO. Cells were incubated with compounds for 1-2h, and subsequently competitive binding of cAMP produced due to the activation of SSTR2 by the test compounds was measured using the Cisbio cAMP Gs dynamic assay system (Perkin Elmer, Bedford, MA).
The average pEC50 was determined for the test compounds.

T1 sequence (P30874 whole entry, species assumed): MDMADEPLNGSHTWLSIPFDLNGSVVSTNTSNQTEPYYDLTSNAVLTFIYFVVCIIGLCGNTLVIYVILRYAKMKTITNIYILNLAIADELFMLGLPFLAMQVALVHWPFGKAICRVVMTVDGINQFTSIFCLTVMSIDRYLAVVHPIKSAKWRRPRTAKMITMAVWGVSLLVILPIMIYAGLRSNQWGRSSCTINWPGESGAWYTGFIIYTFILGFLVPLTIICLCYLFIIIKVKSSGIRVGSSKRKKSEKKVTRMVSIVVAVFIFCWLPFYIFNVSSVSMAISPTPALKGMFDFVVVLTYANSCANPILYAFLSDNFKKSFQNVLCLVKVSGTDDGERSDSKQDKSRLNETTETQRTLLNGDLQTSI

EC50 [nM] | Structure (SMILES)
15.8 | Cc1cc(F)cc(-c2cnc3ccc4cc3c2N2CCC(CC2)NCC(CO)CCOc2c(C#N)cccc2-4)c1 (single isomer, unassigned) [Compound 90]
6.31 | Cc1cc(F)cc(-c2cnc3ccc4cc3c2N2CCC(CC2)NC[C@H](CO)CCOc2c(C#N)cccc2-4)c1 (single isomer, unassigned) [Compound 91]
0.794 | Cc1cc(F)cc(-c2cnc3ccc4cc3c2N2CCC(CC2)NCC[C@@H](N=[N+]=[N-])COc2c(C#N)cccc2-4)c1 (single isomer, unassigned) [Compound 96]
2.51 | Cc1cc(F)cc(-c2cnc3ccc4cc3c2N2CCC(CC2)NCC[C@H](N=[N+]=[N-])COc2c(C#N)cccc2-4)c1 (single isomer, unassigned) [Compound 97]
316 | Cc1cc(F)cc(-c2cnc3ccc4cc3c2N2CCC(CC2)NCC[C@@H](N)COc2c(C#N)cccc2-4)c1 (single isomer, unassigned) [Compound 98]
7.94 | Cc1cc(F)cc(-c2cnc3ccc4cc3c2N2CCC(CC2)NCC[C@H](N)COc2c(C#N)cccc2-4)c1 (single isomer, unassigned) [Compound 99]
2510 | Cc1cc(F)cc(-c2cnc3ccc4cc3c2N2CCC(CC2)NC[C@@H](O)CCOc2c(C#N)cccc2-4)c1 (single isomer, unassigned) [Compound 100]
1580 | Cc1cc(F)cc(-c2cnc3ccc4cc3c2N2CCC(CC2)NC[C@H](O)CCOc2c(C#N)cccc2-4)c1 (single isomer, unassigned) [Compound 101]
398 | Cc1cc(F)cc(-c2cnc3ccc4cc3c2N2CCC(CC2)NCC[C@@H](O)COc2c(C#N)cccc2-4)c1 (single isomer, unassigned) [Compound 102]
3980 | Cc1cc(F)cc(-c2cnc3ccc4cc3c2N2CCC(CC2)NCC[C@H](O)COc2c(C#N)cccc2-4)c1 (single isomer, unassigned) [Compound 103]
0.316 | Cc1cc(F)cc(-c2cnc3ccc(-c4cc(F)cc(C(N)=O)c4)cc3c2O[C@H]2CC[C@H](N)C2)c1 [Compound 1, 3-(4-(((1S,3S)-3-aminocyclopentyl)oxy)-3-(3-fluoro-5-methylphenyl)quinolin-6-yl)-5-fluorobenzamide]
1 | Cc1cc(F)cc(-c2cnc3ccc(-c4cc(F)cc(C(N)=O)c4)cc3c2O[C@@H]2CC[C@H](N)C2)c1 [Compound 2]
7.94 | Cc1cc(F)cc(-c2cnc3ccc(-c4cc(F)cc(C(N)=O)c4)cc3c2O[C@H]2CC[C@@H](N)C2)c1 [Compound 3]
0.398 | Cc1cc(F)cc(-c2cnc3ccc(-c4cc(F)cc(C(N)=O)c4)cc3c2O[C@@H]2CC[C@@H](N)C2)c1 [Compound 4]
3.16 | COc1cc(F)cc(-c2cnc3ccc(-c4cc(F)cc(C(N)=O)c4)cc3c2O[C@@H]2CC[C@H](N)C2)c1 [Compound 5]
63.1 | COc1cc(F)cc(-c2cnc3ccc(-c4ccc5[nH]c(=O)[nH]c5c4)cc3c2O[C@@H]2CC[C@H](N)C2)c1 [Compound 6]
20 | COc1cc(F)cc(-c2cnc3ccc(-c4cccc(C#N)c4O)cc3c2O[C@@H]2CC[C@H](N)C2)c1 [Compound 7]
6.31 | Cc1cc(F)cc(-c2cnc3ccc(-c4ccc5[nH]c(=O)[nH]c5c4)cc3c2O[C@@H]2CC[C@H](N)C2)c1 [Compound 8]
3.16 | Cc1cc(F)cc(-c2cnc3ccc(-c4cccc(C#N)c4O)cc3c2O[C@@H]2CC[C@H](N)C2)c1 [Compound 9]

EC50 [nM] | Structure (SMILES)
10 | NC(=O)c1cc(F)cc(-c2ccc3ncc(-c4cc(F)cc(F)c4)c(O[C@@H]4CC[C@H](N)C4)c3c2)c1 [Compound 10]
398 | N[C@H]1CC[C@@H](Oc2c(-c3cc(F)cc(F)c3)cnc3ccc(-c4ccc5[nH]c(=O)[nH]c5c4)cc23)C1 [Compound 11]
15.8 | N[C@@H]1CC[C@H](Oc2c(-c3cc(F)cc(F)c3)cnc3ccc(-c4cc(F)cc(F)c4)cc23)C1 [Compound 12, (1R,3S)-3-((3,6-bis(3,5-difluorophenyl)quinolin-4-yl)oxy) cyclopentanamine]
100 | N[C@H]1CC[C@@H](Oc2c(-c3cc(F)cc(F)c3)cnc3ccc(-c4cc(F)cc(F)c4)cc23)C1 [Compound 13]
12.6 | N[C@@H]1CC[C@@H](Oc2c(-c3cc(F)cc(F)c3)cnc3ccc(-c4cc(F)cc(F)c4)cc23)C1 [Compound 14]
12.6 | N[C@H]1CC[C@H](Oc2c(-c3cc(F)cc(F)c3)cnc3ccc(-c4cc(F)cc(F)c4)cc23)C1 [Compound 15]
200 | N#Cc1cccc(-c2ccc3ncc(-c4cc(F)cc(F)c4)c(O[C@H]4CC[C@@H](N)C4)c3c2)c1O [Compound 16]
12.6 | NC1CC(Oc2c(-c3cc(F)cc(F)c3)cnc3ccc(-c4cc(F)cc(F)c4)cc23)C1 (centres unmarked) [Compound 17]
12.6 | Cc1cc(F)cc(-c2cnc3ccc(-c4cc(F)cc(C(N)=O)c4)cc3c2O[C@H]2C[C@@H](N)C2)c1 [Compound 18]
1 | Cc1cc(F)cc(-c2cnc3ccc(-c4cc(F)cc(C(N)=O)c4)cc3c2O[C@H]2C[C@H](N)C2)c1 [Compound 19]
3980 | NCC1CCCCC1Oc1c(-c2cc(F)cc(F)c2)cnc2ccc(-c3cc(F)cc(F)c3)cc12 (centres unmarked) [Compound 20]
20 | Cc1cc(F)cc(-c2cnc3ccc(-c4cc(F)cc(C(N)=O)c4)cc3c2OC2CCCC(CN)C2)c1 (centres unmarked) [Compound 21]
> 10000 | N#Cc1cccc(-c2ccc3ncc(-c4cc(F)cc(F)c4)c(OC4CCCC(N)C4)c3c2)c1O (centres unmarked) [Compound 22]
> 10000 | CO[C@@H]1CN(c2c(-c3cc(F)cc(F)c3)cnc3c2nc(-c2cccc(C#N)c2O)n3C)CC[C@H]1N [Compound 23, 3-(7-((3R,4R)-4-amino-3-methoxypiperidin-1-yl)-6-(3,5-difluorophenyl)-3-methyl-3H-imidazo[4,5-b]pyridin-2-yl)-2-hydroxybenzonitrile]
> 5010 | CO[C@@H]1CN(c2c(-c3cc(F)cc(F)c3)cnc3c2nc(-c2cc(F)cc(C(N)=O)c2)n3C)CC[C@H]1N [Compound 24]
> 10000 | CO[C@@H]1CN(c2c(-c3cc(F)cc(F)c3)cnc3c2nc(-c2ccc4[nH]c(=O)[nH]c4c2)n3C)CC[C@H]1N [Compound 25]
> 10000 | CO[C@@H]1CN(c2c(-c3cc(C)cc(F)c3)cnc3c2nc(-c2ccc4[nH]c(=O)[nH]c4c2)n3C)CC[C@H]1N [Compound 27]
> 10000 | COc1cc(F)cc(-c2cnc3c(nc(-c4cccc(C#N)c4O)n3C)c2N2CC[C@@H](N)[C@H](OC)C2)c1 [Compound 29]
1000 | COc1cc(F)cc(-c2cnc3c(nc(-c4cc(F)cc(C(N)=O)c4)n3C)c2N2CC[C@@H](N)[C@H](OC)C2)c1 [Compound 30]

EC50 [nM] | Structure (SMILES)
> 10000 | COc1cc(F)cc(-c2cnc3c(nc(-c4ccc5[nH]c(=O)[nH]c5c4)n3C)c2N2CC[C@@H](N)[C@H](OC)C2)c1 [Compound 31]
> 10000 | COc1cc(F)cc(-c2cnc3c(nc(-c4ccc5[nH]c(=O)[nH]c5c4)n3C)c2N2CCC(N)CC2)c1 [Compound 32]
1580 | COc1cc(F)cc(-c2cnc3c(nc(-c4cc(F)cc(C(N)=O)c4)n3C)c2N2CCC(N)CC2)c1 [Compound 33]
501 | COc1cc(F)cc(-c2cnc3c(nc(-c4cccc(C#N)c4O)n3C)c2N2CCC(N)CC2)c1 [Compound 34]
158 | Cc1cc(F)cc(-c2cnc3c(nc(-c4cc(F)cc(C(N)=O)c4)n3C)c2N2CCC(N)CC2)c1 [Compound 35, 3-(7-(4-aminopiperidin-1-yl)-6-(3-fluoro-5-methylphenyl)-3-methyl-3H-imidazo[4,5-b]pyridin-2-yl)-5-fluorobenzamide]
> 10000 | Cc1cc(F)cc(-c2cnc3c(nc(-c4ccc5[nH]c(=O)[nH]c5c4)n3C)c2N2CCC(N)CC2)c1 [Compound 36]
316 | Cc1cc(F)cc(-c2cnc3c(nc(-c4cccc(C#N)c4O)n3C)c2N2CCC(N)CC2)c1 [Compound 37]
2000 | Cn1c(-c2cc(F)cc(C(N)=O)c2)nc2c(N3CCC(N)CC3)c(-c3cc(F)cc(F)c3)cnc21 [Compound 38]
> 10000 | Cn1c(-c2ccc3[nH]c(=O)[nH]c3c2)nc2c(N3CCC(N)CC3)c(-c3cc(F)cc(F)c3)cnc21 [Compound 39]
> 10000 | Cn1c(-c2cccc(Br)c2O)nc2c(N3CCC(NC(=O)OC(C)(C)C)CC3)c(-c3cc(F)cc(F)c3)cnc21 [Compound 40]
158 | Cn1c(-c2cccc(Br)c2O)nc2c(N3CCC(N)CC3)c(-c3cc(F)cc(F)c3)cnc21 [Compound 41]
> 10000 | Cn1c(-c2cccc(C#N)c2O)nc2c(N3CCC(NC(=O)OC(C)(C)C)CC3)c(-c3cc(F)cc(F)c3)cnc21 [Compound 42]
6310 | Cn1c(-c2cccc(C#N)c2O)nc2c(N3CCC(N)CC3)c(-c3cc(F)cc(F)c3)cnc21 [Compound 43]
> 10000 | Cn1c(-c2cccc(Br)c2O)nc2ncc(-c3cc(F)cc(F)c3)c(N3CCC(NC(=O)OC(C)(C)C)CC3)c21 [Compound 44]
398 | Cn1c(-c2cccc(Br)c2O)nc2ncc(-c3cc(F)cc(F)c3)c(N3CCC(N)CC3)c21 [Compound 45]
> 10000 | CO[C@@H]1CN(c2c(-c3cc(F)cc(F)c3)cnc3[nH]c(-c4ccc5[nH]c(=O)[nH]c5c4)nc23)CC[C@H]1N [Compound 46, 5-(7-((3R,4R)-4-amino-3-methoxypiperidin-1-yl)-6-(3,5-difluorophenyl)-3H-imidazo[4,5-b]pyridin-2-yl)-1,3-dihydro-2H-benzo[d]imidazol-2-one]
1000 | CO[C@@H]1CN(c2c(-c3cc(F)cc(F)c3)cnc3[nH]c(-c4cc(F)cc(C(N)=O)c4)nc23)CC[C@H]1N [Compound 47]
501 | CO[C@@H]1CN(c2c(-c3cc(F)cc(F)c3)cnc3[nH]c(-c4cccc(C#N)c4O)nc23)CC[C@H]1N [Compound 48]
